Data reported in US12128035B2, “Activating pyruvate kinase R” (Novo Nordisk Health Care AG, priority 2021, dated 2024).
“And” between values parts separate entries of the source, which are not always exact repeats. Identical values can stand only once. Like-named read-outs stand apart in the source and are kept apart here.

Columns and labels:
PKR (G332S) = PKR (G332S) (Homo sapiens, UniProt P30613, G332S); test: Luminescence Assay (Kinase Glo Plus) of PKR activation; format: biochemical; details: read-out: AC50 (PKRG332S)
Method: (§1) PKR Activating Compounds can be identified with the biochemical Luminescence Assay of Example 2. The PKR activating activity of a series of chemical compounds was evaluated using the Luminescence Assay below, including compounds designated Compound 1, and Compound 2, or mixtures thereof.
(§2) For each tested compound, the ability to activate PKR was determined using the following Luminescence Assay. The effect of phosphorylation of adenosine-5′-diphosphate (ADP) by PKR is determined by the Kinase Glo Plus Assay (Promega) in the presence or absence of FBP (D-fructose-1,6-diphosphate; BOC Sciences, CAS: 81028-91-3) as follows. Unless otherwise indicated, all reagents are purchased from Sigma-Aldrich. All reagents are prepared in buffer containing 50 mM Tris-HCl, 100 mM KCl, 5 mM MgCl2, and 0.01% Triton X100, 0.03% BSA, and 1 mM DTT. Enzyme and PEP (phosphoenolpyruvate) are added at 2× to all wells of an assay-ready plate containing serial dilutions of test compounds or DMSO vehicle. Final enzyme concentrations for PKR (wt), PKR(R510Q), and PKR (G332S) are 0.8 nM, 0.8 nM, and 10 nM respectively. Final PEP concentration is 100 μM. The Enzyme/PEP mixture is incubated with compounds for 30 minutes at RT before the assay is initiated with the addition of 2×ADP and KinaseGloPlus. Final concentration of ADP is 100 μM. […] For assays containing FBP, that reagent is added at 30 μM upon reaction initiation. Reactions are allowed to progress for 45 minutes at RT until luminescence is recorded by the BMG PHERAstar FS Multilabel Reader. The compound is tested in triplicate at concentrations ranging from 42.5 μM to 2.2 nM in 0.83% DMSO. AC50 measurements were obtained by the standard four parameter fit algorithm of ActivityBase XE Runner (max, min, slope and AC50). The AC50 value for a compound is the concentration (μM) at which the activity along the four parameter logistic curve fit is halfway between minimum and maximum activity.
(§3) As set forth in Table 2 below, AC50 values are defined as follows: ≤0.1 μM (+++); >0.1 μM and ≤1.0 μM (++); >1.0 μM and ≤40 μM (+); >40 μM (0).

PKR (wt) = PKR (wt) (Homo sapiens, UniProt P30613); test: as above; format: biochemical
Method: as §1, §2, §3

PKR(R510Q) = PKR(R510Q) (Homo sapiens, UniProt P30613, R510Q); test: as above; format: biochemical; details: read-out: AC50 (PKRR510Q)
Method: as §1, §2, §3

aromatase = target: T1, aromatase (Homo sapiens, UniProt P11511); details: Yang et al. 2018; Grace et al. 2019; cited from earlier work
T1 construct: endogenous in cells; host or cells: H295R adreno-cortical carcinoma cells; healthy human subjects in vivo
T1 sequence (P11511 1-503): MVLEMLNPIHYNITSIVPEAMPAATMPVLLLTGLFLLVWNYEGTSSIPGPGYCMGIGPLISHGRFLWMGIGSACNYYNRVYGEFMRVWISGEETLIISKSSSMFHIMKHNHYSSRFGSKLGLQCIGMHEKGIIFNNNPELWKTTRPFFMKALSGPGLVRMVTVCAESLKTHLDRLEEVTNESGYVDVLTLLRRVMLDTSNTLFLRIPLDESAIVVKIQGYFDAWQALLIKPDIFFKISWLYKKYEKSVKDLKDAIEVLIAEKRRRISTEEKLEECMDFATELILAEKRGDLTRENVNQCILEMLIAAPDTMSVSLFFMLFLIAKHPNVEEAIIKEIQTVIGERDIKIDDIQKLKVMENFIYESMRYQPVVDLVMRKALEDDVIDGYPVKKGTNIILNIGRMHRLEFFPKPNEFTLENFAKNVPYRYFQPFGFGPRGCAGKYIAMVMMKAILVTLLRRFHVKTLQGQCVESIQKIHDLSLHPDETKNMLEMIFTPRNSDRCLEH

[1] = Phase 1: hematologic and hemolytic laboratory parameters in SCD patients; format: in vivo, human; details: for Hemoglobin / Indirect Bilirubin / Lactate Dehydrogenase, U/L / Reticulocytes, %: SCD 300 mg Compound 1/Placebo (blinded) once daily, individual Pt 1-3
Text: Laboratory changes relative to pretreatment for each pt in the MD cohort as of Jul. In 2 of 3 SCD MD-1 pts treated with Compound 1/placebo (currently blinded), Hb increased by >1 g/dL, % reticulocytes decreased, and markers of hemolysis were improved after 14 days of treatment (compared to pre-treatment levels). Hematologic parameters returned to pre-treatment levels 4 to 7 days post-treatment (data not shown) without clinical AEs.
A median 1.2 g/dL Hb increase (range 0, 2.3) and a median 60% reticulocyte decrease (range −39%, −81%) over baseline were observed. The onset of the increase in Hb was rapid and continued to increase in most patients through the end of treatment, indicating the potential for additional improvement with extended dosing. […] A median 36% LDH decrease (range +18%, −57%) and a median 35% bilirubin decrease (range −7%, −63%) over baseline were observed, which is consistent with the hypothesis that Compound 1 improves RBC survival and reduces RBC turnover.

[2] = intravenous (IV) bolus dose; cited from earlier work
[3] = cited from earlier work
[4] = whole blood, relative to fasted state

Chain of PKR(R510Q) (P30613 whole entry R510Q): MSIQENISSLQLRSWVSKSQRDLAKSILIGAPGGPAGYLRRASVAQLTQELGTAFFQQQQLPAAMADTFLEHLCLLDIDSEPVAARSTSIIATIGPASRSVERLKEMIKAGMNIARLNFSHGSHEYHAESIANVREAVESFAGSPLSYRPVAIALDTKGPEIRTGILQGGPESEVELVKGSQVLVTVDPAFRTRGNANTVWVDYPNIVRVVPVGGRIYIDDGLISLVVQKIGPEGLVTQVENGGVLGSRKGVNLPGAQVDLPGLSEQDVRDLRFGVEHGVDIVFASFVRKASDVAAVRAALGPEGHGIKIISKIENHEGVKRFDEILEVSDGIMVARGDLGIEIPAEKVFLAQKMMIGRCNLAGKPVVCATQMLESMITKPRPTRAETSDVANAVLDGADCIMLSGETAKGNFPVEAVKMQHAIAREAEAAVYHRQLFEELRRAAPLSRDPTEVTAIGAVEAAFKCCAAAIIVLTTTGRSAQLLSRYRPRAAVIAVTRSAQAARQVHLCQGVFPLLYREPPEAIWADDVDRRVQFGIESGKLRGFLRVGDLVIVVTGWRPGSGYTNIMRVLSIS
Chain of PKR (wt) (P30613 whole entry): as the sequence (P30613 whole entry R510Q) above, with Q510R counted along it
Chain of PKR (G332S) (P30613 whole entry G332S): as the sequence (P30613 whole entry R510Q) above, with G332S, Q510R counted along it

O=C([C@@H](CO)c1ccccc1)N1CC2=C(C1)CN(S(=O)(=O)c1cnc3c(c1)OCCO3)C2 (single isomer, unassigned) [Compound 2]
AC50 (PKR (G332S)): 1 to 40 µM
AC50 (PKR (wt)): 1 to 40 µM
AC50 (PKR(R510Q)): 1 to 40 µM

O=C(c1ccc(NS(=O)(=O)c2cccc3cccnc23)cc1)N1CCN(CC2CC2)CC1 [AG-348]
aromatase inhibition (aromatase): Aromatase inhibition has been observed

O=C([C@H](CO)c1ccccc1)N1CC2=C(C1)CN(S(=O)(=O)c1cnc3c(c1)OCCO3)C2 [Compound 1/Placebo]
Hemoglobin ([1]; Day 7 (on Tx)): 7.9 g/dL and 10.4 g/dL and 8.8 g/dL
Indirect Bilirubin ([1]; Day 7 (on Tx)): 2.5 mg/dL and 0.9 mg/dL and 0.8 mg/dL
Lactate Dehydrogenase, U/L ([1]; Day 7 (on Tx)): 148 U/L and 257 U/L and 371 U/L
Reticulocytes, % ([1]; Day 7 (on Tx)): 12.8% and 6.8% and 5.8%
Hemoglobin ([1]; Day 14/15 (EOT)): 7.5 g/dL and 11.1 g/dL and 9.2 g/dL
Indirect Bilirubin ([1]; Day 14/15 (EOT)): 3.0 mg/dL and 0.8 mg/dL and 1.0 mg/dL
Lactate Dehydrogenase, U/L ([1]; Day 14/15 (EOT)): 192 U/L and 226 U/L and 279 U/L
Reticulocytes, % ([1]; Day 14/15 (EOT)): 11.4% and 0.8% and 4.2%
patients with Hb increased by >1 g/dL ([1]; SCD MD-1, Compound 1/placebo (currently blinded), 14 days): 2 of 3

NC(=O)CC[C@H](N)C(=O)O [L-glutamine, (S)-2-aminoglutaramic acid]
volume of distribution [2]: approximately 200 mL/kg

CC(C)n1nccc1-c1ncccc1COc1cccc(O)c1C=O [voxelotor, 2-hydroxy-6-((2-(1-isopropyl-1H-pyrazol-5-yl)pyridin-3-yl)methoxy)benzaldehyde]
increase in AUC with high-fat, high-calorie meal ([3]; plasma): 42%
increase in Cmax with high-fat, high-calorie meal ([3]; plasma): 95%
steady state AUC higher in HbSC vs HbSS genotype patients ([3]; plasma): 23%
steady state Cmax higher in HbSC vs HbSS genotype patients ([3]; plasma): 15%
increase in AUC with high-fat, high-calorie meal [3, 4]: 42%
increase in Cmax with high-fat, high-calorie meal [3, 4]: 45%
steady state AUC higher in HbSC vs HbSS genotype patients ([3]; whole blood): 50%
steady state Cmax higher in HbSC vs HbSS genotype patients ([3]; whole blood): 45%
